Values after ≈ are worked out from the molar mass of the structure shown. Counter-ions that a name gives are not always drawn.
How the values were obtained:
[1] = tested on: Staphylococcus aureus ATCC 6538P; test: Disc-plate assay (bioassay potency); assay type: cell-based; settings: for potency (assay against standard Antibiotic JI-20B base): vs standard Antibiotic JI-20B base, assigned potency 1000 mcg/mg
Method: Peak antibiotic production is determined by a disc-plate assay which uses Staphylococcus aureus ATCC 6538P as the test organism and which is performed substantially as described by Oden, et al. Antimicrobial Agents and Chemotherapy, 1963, pages 8-13.
The reference standard is Antibiotic JI-20B base having an assigned potency of 1000 mcg/mg. One (1) microgram of the standard in one (1) ml. of 0.1M phosphate buffer at pH 8.0 elicits a zonal response of 16.8± 1.5 mm. The standard Antibiotic JI-20B sulfate assays 730 mcg/mg against the standard base. Antibiotic JI-20A base and the corresponding sulfate assay 723 mcg/mg. and 527 mcg/mg., respectively, when assayed against the standard Antibiotic JI-20B base.

[2] = tested on: Staphylococcus aureus 2059; test: In vitro MIC, Mueller-Hinton broth; assay type: cell-based; settings: 24 hours, expressed as free base, tested as sulfate
Method: (§1) In the table set forth below are test results after 24 hours incubation against representative gram positive and gram negative bacteria.

Staphylococcus aureus 70 = test: In vitro MIC, Mueller-Hinton broth; assay type: cell-based; settings: 24 hours, expressed as free base, tested as sulfate
Method: as §1

Escherichia coli 11775 [3] = test: In vitro MIC, Mueller-Hinton broth; assay type: cell-based; settings: 24 hours, expressed as free base, tested as sulfate
Method: as §1

[4] = tested on: Klebsiella pneumonia 13883; test: In vitro MIC, Mueller-Hinton broth; assay type: cell-based; settings: Klebsiella pneumoniae, 24 hours, expressed as free base, tested as sulfate
Method: as §1

[5] = tested on: Pseudomonas aeruginosa 59; test: In vitro MIC, Mueller-Hinton broth; assay type: cell-based; settings: 24 hours, expressed as free base, tested as sulfate
Method: as §1

Proteus mirabilis 8019 = test: In vitro MIC, Mueller-Hinton broth; assay type: cell-based; settings: 24 hours, expressed as free base, tested as sulfate
Method: as §1

[6] = tested on: Pseudomonas aeruginosa 60; test: In vitro MIC, Mueller-Hinton broth; assay type: cell-based; settings: 24 hours, expressed as free base, tested as sulfate
Method: as §1

[7] = tested on: Klebsiella rhinoscleromatis 18804; test: In vitro MIC, Mueller-Hinton broth; assay type: cell-based; settings: Klebsiella pneumoniae, 24 hours, expressed as free base, tested as sulfate
Method: as §1

Escherichia coli 12740 = test: In vitro MIC, Mueller-Hinton broth; assay type: cell-based; settings: 24 hours, expressed as free base, tested as sulfate
Method: as §1

Staphylococcus aureus 45 = test: In vitro MIC, Mueller-Hinton broth; assay type: cell-based; settings: 24 hours, expressed as free base, tested as sulfate
Method: as §1

Klebsiella pneumoniae 18 = test: In vitro MIC, Mueller-Hinton broth; assay type: cell-based; settings: 24 hours, expressed as free base, tested as sulfate
Method: as §1

Acute toxicity = settings: in vivo, iv, I.V.
[8] = tested on: Pseudomonas aeruginosa 1516-7; test: In vivo mouse protection test; settings: 15167, ip, Pseudomonas aeruginosa 1516-7 i.p. infection, dosed twice (0 and 4 h), survivors at 48 hours, read-out: PD50
Method: (§2) To determine the in vivo protective activity of the antibiotics against lethal infections of pathogenic bacterial origin in mice, mice were dosed twice with the individual antibiotic, with a solution or a suspension in an aqueous vehicle containing 0.5 % carboxy-methyl-cellulose (CMC), once immediately before an intraperitoneal injection of the infecting bacteria and once 4 hours after such injection. The number of survivors was determined 48 hours after infection and that data analyzed by standard probit procedures to determine PD50 values with 95% confidence limits. The following chart sets forth the protective activity of the antibiotics against a pathogenic bacterium.

Escherichia coli 11775 [9] = test: In vivo mouse protection test; settings: ip, Escherichia coli 11775 i.p. infection, dosed twice (0 and 4 h), survivors at 48 hours, read-out: PD50
Method: as §2

Escherichia coli 626 = test: In vivo mouse protection test; settings: ip, Escherichia coli 626 i.p. infection, dosed twice (0 and 4 h), survivors at 48 hours, read-out: PD50
Method: as §2

Salmonella sp. S.C. = test: In vivo mouse protection test; settings: 48 h, read-out: PD50
Method: as §2

Staphylococcus aureus = test: In vivo mouse protection test; settings: ip, Staphylococcus aureus i.p. infection, dosed twice (0 and 4 h), survivors at 48 hours, read-out: PD50
Method: as §2

[10] = tested on: Staphylococcus aureus Gray 979; test: In vivo mouse protection test; settings: GRAY979, ip, Staphylococcus aureus Gray 979 i.p. infection, dosed twice (0 and 4 h), survivors at 48 hours, read-out: PD50
Method: as §2

[11] = tested on: Streptococcus pyogenes C2V; test: In vivo mouse protection test; settings: ip, Streptococcus pyogenes C2V i.p. infection, dosed twice (0 and 4 h), survivors at 48 hours, read-out: PD50
Method: as §2

[12] = tested on: Pseudomonas aeruginosa 413; test: In vivo mouse protection test; settings: ip, Pseudomonas aeruginosa 413 i.p. infection, dosed twice (0 and 4 h), survivors at 48 hours, read-out: PD50
Method: as §2

pKa = assay type: physicochemical

CNC1C(O)C(OC2C(N)CC(N)C(OC3OC(CN)C(O)C(O)C3N)C2O)OCC1(C)O (stereo not shown) [Antibiotic JI-20A sulfate]
potency (assay against standard Antibiotic JI-20B base) [1]: 527 µg/mg

CNC1C(O)C(OC2C(N)CC(N)C(OC3OC(CN)C(O)C(O)C3N)C2O)OCC1(C)O (stereo not shown) [Antibiotic JI-20A]
MIC [2]: 7.5 µg/mL (≈ 15.6 µM) | MIC (Staphylococcus aureus 70): 3 µg/mL (≈ 6.23 µM) | MIC (Escherichia coli 11775 [3]): 0.3 µg/mL (≈ 0.623 µM) | MIC [4]: 7.05 µg/mL (≈ 14.6 µM) | MIC [5]: 3 µg/mL (≈ 6.23 µM) | MIC (Proteus mirabilis 8019): 0.8 µg/mL (≈ 1.66 µM) | MIC [6]: 3 µg/mL (≈ 6.23 µM) | MIC [7]: 0.05 µg/mL (≈ 0.104 µM) | MIC (Escherichia coli 12740): 0.3 µg/mL (≈ 0.623 µM) | MIC (Staphylococcus aureus 45): 0.3 µg/mL (≈ 0.623 µM) | MIC (Klebsiella pneumoniae 18): 7.5 µg/mL (≈ 15.6 µM) | LD50 (Acute toxicity): 115 mg/kg | ED50 [8]: 50 mg/kg | ED50 (Escherichia coli 11775 [9]): 4 mg/kg | ED50 (Escherichia coli 626): 15 mg/kg | ED50 (Salmonella sp. S.C.): 3 mg/kg | ED50 (Staphylococcus aureus): 2.9 mg/kg | ED50 [10]: 3 mg/kg | ED50 [11]: 40 mg/kg | ED50 [12]: 50 mg/kg | potency (assay against standard Antibiotic JI-20B base) ([1]; listed as Antibiotic JI-20A base): 723 µg/mg | pKa (pKa): 8.1

CN[C@@H]1[C@@H](O)[C@@H](O[C@@H]2[C@@H](O)[C@H](O[C@H]3O[C@H](C(C)N)[C@@H](O)[C@H](O)[C@H]3N)[C@@H](N)C[C@H]2N)OC[C@]1(C)O (stereo partly shown) [Antibiotic JI-20B sulfate]
potency (assay against standard Antibiotic JI-20B base) [1]: 730 µg/mg

CN[C@@H]1[C@@H](O)[C@@H](O[C@@H]2[C@@H](O)[C@H](O[C@H]3O[C@H](C(C)N)[C@@H](O)[C@H](O)[C@H]3N)[C@@H](N)C[C@H]2N)OC[C@]1(C)O (stereo partly shown) [Antibiotic JI-20B]
MIC [2]: 7.5 µg/mL (≈ 15.1 µM) | MIC (Staphylococcus aureus 70): 3 µg/mL (≈ 6.05 µM) | MIC (Escherichia coli 11775 [3]): 0.8 µg/mL (≈ 1.61 µM) | MIC [4]: 0.08 µg/mL (≈ 0.161 µM) | MIC [5]: 7.5 µg/mL (≈ 15.1 µM) | MIC (Proteus mirabilis 8019): 0.8 µg/mL (≈ 1.61 µM) | MIC [6]: 17.5 µg/mL (≈ 35.3 µM) | MIC [7]: 0.08 µg/mL (≈ 0.161 µM) | MIC (Escherichia coli 12740): 0.3 µg/mL (≈ 0.605 µM) | MIC (Staphylococcus aureus 45): 0.3 µg/mL (≈ 0.605 µM) | MIC (Klebsiella pneumoniae 18): 17.5 µg/mL (≈ 35.3 µM) | LD50 (Acute toxicity): 115 mg/kg | ED50 [8]: 50 mg/kg | ED50 (Escherichia coli 11775 [9]): 8 mg/kg | ED50 (Escherichia coli 626): 15 mg/kg | ED50 (Salmonella sp. S.C.): 4.5 mg/kg | ED50 (Staphylococcus aureus): 14 mg/kg | ED50 [10]: 2.8 mg/kg | ED50 [11]: 40 mg/kg | ED50 [12]: 50 mg/kg | zone of inhibition at 1 µg/mL ([1]; Staphylococcus aureus, ATCC6538P, 1 microgram of standard in 1 ml 0.1M phosphate buffer pH 8.0, read-out: zonal response): 16.8 ± 1.5 mm | pKa (pKa): 8.1

— US4009269A, “Antibiotic compositions and methods from micromonospora purpurea JI-20” (Schering Corporation, priority 1975, dated 1977)
